The source of these data is patent US20260216197A1, “WRN HELICASE INHIBITOR” (SUZHOU PUHE BIOPHARMA CO., LTD., priority 2022, published 2026).

Data set [1] concerns MSS colorectal cancer HT-29 cell line. Kind of data set: 2D anti-proliferative activity, MSS HT-29 cells (CTG, 5 days). The data set is classed as cell-based. The protocol:
The molecules of the present disclosure were tested for their anti-proliferative activity against MSS tumor cells.
(§1) The MSS HT-29 colorectal cancer cells were cultured in McCoy's 5A medium containing 10% FBS and 1% penicillin-streptomycin in a 37° C., 5% CO2 constant temperature incubator. A 40 μL cell suspension was added to each well of a 384-well microplate. Using Echo, 40 nL of compounds at different concentrations was dispensed into each well, followed by incubation in a 37° C., 5% CO2 constant temperature incubator for 5 days. Then, 40 μL of CTG solution (Promega, Cat No. G7573) was added to each well, and the plate was incubated in the dark in a 37° C., 5% CO2 constant temperature incubator for 30 minutes. Luminescence was measured using an Envision multi-function microplate reader (Perkin Elmer, Model: Envision 2104). The luminescent signal was proportional to the amount of ATP in the system, and the amount of ATP directly represented the number of living cells in the system.

The target in a further data set is WRN helicase (Homo sapiens, UniProt Q14191). Kind of data set: WRN helicase hydrolysis/unwinding of double-stranded DNA (fluorescence). The data set is classed as biochemical. On the procedure: The activity of the molecules of the present disclosure on the hydrolysis of double-stranded PP-6TR DNA by WRN helicase was tested.
Chain of WRN helicase (Q14191 whole entry): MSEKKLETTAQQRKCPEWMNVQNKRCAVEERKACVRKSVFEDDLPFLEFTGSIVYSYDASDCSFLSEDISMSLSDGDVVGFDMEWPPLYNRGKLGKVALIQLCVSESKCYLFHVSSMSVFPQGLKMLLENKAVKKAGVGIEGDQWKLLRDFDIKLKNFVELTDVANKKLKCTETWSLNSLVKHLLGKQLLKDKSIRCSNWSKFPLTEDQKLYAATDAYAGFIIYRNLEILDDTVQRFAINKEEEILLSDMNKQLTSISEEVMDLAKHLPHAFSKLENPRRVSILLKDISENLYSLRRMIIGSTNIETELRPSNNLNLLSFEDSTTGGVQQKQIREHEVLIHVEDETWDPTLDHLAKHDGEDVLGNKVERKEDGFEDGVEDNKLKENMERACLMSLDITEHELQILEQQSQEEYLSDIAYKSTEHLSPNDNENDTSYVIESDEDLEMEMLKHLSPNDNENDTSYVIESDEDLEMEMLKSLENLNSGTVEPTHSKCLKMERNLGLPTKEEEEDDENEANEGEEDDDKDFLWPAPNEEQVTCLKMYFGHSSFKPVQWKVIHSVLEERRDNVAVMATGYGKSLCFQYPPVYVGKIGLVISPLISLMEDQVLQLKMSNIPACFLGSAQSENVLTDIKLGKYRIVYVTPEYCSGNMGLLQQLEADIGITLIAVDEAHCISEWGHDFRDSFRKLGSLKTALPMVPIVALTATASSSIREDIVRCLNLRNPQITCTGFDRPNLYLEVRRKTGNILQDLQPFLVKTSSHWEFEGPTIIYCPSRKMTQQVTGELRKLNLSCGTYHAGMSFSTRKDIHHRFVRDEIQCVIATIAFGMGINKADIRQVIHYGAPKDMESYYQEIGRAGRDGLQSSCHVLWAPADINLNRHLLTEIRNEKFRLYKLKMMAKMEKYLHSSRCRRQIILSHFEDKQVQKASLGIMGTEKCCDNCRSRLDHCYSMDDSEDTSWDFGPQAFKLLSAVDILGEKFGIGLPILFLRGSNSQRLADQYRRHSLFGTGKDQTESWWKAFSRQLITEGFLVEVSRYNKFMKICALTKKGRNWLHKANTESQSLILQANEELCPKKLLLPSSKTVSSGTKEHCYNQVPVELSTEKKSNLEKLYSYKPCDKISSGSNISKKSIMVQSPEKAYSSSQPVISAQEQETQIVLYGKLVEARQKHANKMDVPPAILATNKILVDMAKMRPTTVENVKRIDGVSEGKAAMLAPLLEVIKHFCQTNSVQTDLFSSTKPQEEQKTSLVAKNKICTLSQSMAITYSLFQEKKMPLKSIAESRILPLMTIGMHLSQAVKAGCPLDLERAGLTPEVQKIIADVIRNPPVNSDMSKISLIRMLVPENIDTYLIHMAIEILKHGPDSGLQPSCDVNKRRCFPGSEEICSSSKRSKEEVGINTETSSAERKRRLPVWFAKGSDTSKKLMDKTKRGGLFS
The working solution and buffer were prepared, and the test compound was dissolved in DMSO followed by a4-fold dilution (with a final concentration of 10 μM as the starting concentration). Then, 0.2 μL of the test compound solution was added to a384-well plate, followed by 10 μL of (2×) WRN enzyme solution. The mixture was incubated in the dark for 30 minutes, after which 10 μL of substrate detection solution containing double-stranded DNA was added to initiate the reaction (DNA length: 19 bp, labeled with TAMRA at the 3′ end and BHQ2 at the 5′ end). The mixture was incubated at room temperature for 60 minutes. The inhibitory activity (IC50) against the WRN enzyme was calculated based on the fluorescence change (Ex530/Em590) between the blank group (DMSO) and the compound group.

Data set [2] concerns MSI-H colorectal cancer SW48 cell line. The experiment in a line: 2D anti-proliferative activity, MSI-H SW48 cells (CTG, 5 days). It counts as cell-based. The note with it: 5 days. On the procedure:
The molecules of the present disclosure were tested for their anti-proliferative activity against MSI-H tumor cells.
The proliferation of tumor cells with microsatellite instability MSI-H is sensitive to WRN inhibitors, while the proliferation of microsatellite stable (MSS) tumor cells is insensitive to WRN inhibitors. By testing the activities of the two, it is shown that the molecules of the present disclosure have an inhibitory and synthetic lethal effect on WRN at the cellular level.
as §1, with “MSI-unstable SW48” for “MSS HT-29”, “RPMI 1640” for “McCoy's 5A”

Data set [3] in a line: Pharmacokinetic evaluation in mice. It counts as in vivo, CD1 female mice. The following applies: for AUC(0-t): read-out: AUC0-24. The protocol:
CD1 female mice were used as test animals and the drug was administered orally/intravenously (oral dosage: 10 mg/kg, intravenous dosage: 2 mg/kg).
Assay protocol: The oral group consisted of 3 mice per group (vehicle: 10% Hβ-CD-pH7.4), and the intravenous group consisted of 3 mice per group. […] The blood concentrations in plasma after oral and intravenous administration of mice were determined by LC/MS/MS, respectively.

A short description of data set [4]: Liver microsome stability test. The following applies: human liver microsomes 0.5 mg/mL, compound 1 μM, NADPH 1 mM, 60 minutes; for microsomal CLint at 1 μM: read-out: Human Clint μL/min/mg Protein. The data set is classed as in vitro ADME. The protocol:
The liver microsome stability test of the compounds is as follows:
The compounds of the present disclosure were subjected to a liver microsome stability test. The compounds to be tested were co-incubated with liver microsomes of different species with or without the addition of NADPH. The final concentration of the compounds to be tested in the test system was 1 μM, the final concentration of NADPH was 1 mM, and the final concentration of liver microsomes was 0.5 mg/mL.
A general note: Microsomes from liver hold many membrane-bound enzymes, among them those of drug oxidation.

The mark [5] stands for this setting: female, CD1, mouse, plasma, IV 2 mg/kg.
Where [6] appears, read: female, CD1, mouse, plasma, PO 10 mg/kg.

Each structure is given as a SMILES string. Read-outs that look alike come from different tables or passages of the source. Bounds are passed on as bounds.

Regarding `CCc1c(N2CCN(C(=O)c3ncccc3O)CC2)c(=O)n2nc(C3=CCC(OC)CC3)nc2n1CC(=O)Nc1ccc(C(F)(F)F)c2ccsc12` (centres unmarked) [Compound H8], the IC50 came to 1480 nM in data set [1] (Homo sapiens, 120 h); 1.3 nM at WRN helicase; 124 nM in data set [2] (Homo sapiens, 120 h).

In turn, `CCc1c(N2CCN(C(=O)c3ncnc(C)c3O)CC2)c(=O)n2nc(C3=CCOCC3)nc2n1CC(=O)Nc1ccc(Br)c2ccsc12` [Compound H15] had a F in data set [3] (PO 10 mg/kg vs IV 2 mg/kg) of 35%. For the same compound, in data set [3] (setting [5]), the clearance came to 50.4 mL/min/kg, the half-life is 18 min and the AUC(0-t) was 655 ng·h/mL. In addition, the C0 in data set [3] (female, CD1, mouse, plasma, IV 2 mg/kg, read-out: C0) worked out at 1740 ng/mL. In addition, in data set [3] (setting [6]), the half-life was 114 min and the AUC(0-t) amounted to 1050 ng·h/mL. Besides, the Cmax in data set [3] (female, CD1, mouse, plasma, PO 10 mg/kg, read-out: Cmax) was 693 ng/mL. In data set [3] (female, CD1, mouse, plasma, PO 10 mg/kg, read-out: Tmax), the Tmax was 15 min. In data set [1] (Homo sapiens, 120 h), this compound registered an IC50 above 10000 nM. Besides, in data set [4], the CLint scaled at 1 μM amounted to 2.5 mL/min/kg and the microsomal CLint at 1 μM is 2 µL/min/mg. Also, it took 101 nM to reach half-maximal inhibition in data set [2] (Homo sapiens, 120 h) (IC50).

Take `CCc1c(N2CCN(C(=O)c3ncnc(C)c3O)CC2)c(=O)n2nc(C3=CCOCC3)nc2n1CC(=O)Nc1ccc(C(F)(F)F)cc1SC` [Compound H4]: the IC50 in data set [1] (Homo sapiens, 120 h) is above 10000 nM; at WRN helicase, 71 nM; in data set [2] (Homo sapiens, 120 h), 2560 nM.

Consider `CCc1c(N2CCN(C(=O)c3nccc(Cl)c3O)CC2)c(=O)n2nc(C3=CCOCC3)nc2n1CC(=O)Nc1ccc(C(F)(F)F)c2ccsc12` [Compound H19], for which the IC50 is above 10000 nM in data set [1] (Homo sapiens, 120 h); 0.9 nM at WRN helicase; 125 nM in data set [2] (Homo sapiens, 120 h). Further, in data set [4], the CLint scaled at 1 μM was 0.73 mL/min/kg. Also, in data set [4], the microsomal CLint at 1 μM worked out at 0.58 µL/min/mg.

On to `CCc1c(N2CCN(C(=O)c3nccc(F)c3O)CC2)c(=O)n2nc(C3=CCOCC3)nc2n1CC(=O)Nc1ccc(C(F)(F)F)c2ccsc12` [Compound H20], for which the half-maximal inhibitory concentration (IC50) in data set [1] (Homo sapiens, 120 h) is above 10000 nM; at WRN helicase it was 1 nM; in data set [2] (Homo sapiens, 120 h), 75 nM. The compound also displayed a CLint scaled at 1 μM in data set [4] of 25.9 mL/min/kg. For the same compound, the microsomal CLint at 1 μM in data set [4] stood at 20.6 µL/min/mg.

Regarding `CCc1c(N2CCN(C(=O)c3ncccc3O)CC2)c(=O)n2nc(N3CCC[C@H](F)C3)nc2n1CC(=O)Nc1ccc(C(F)(F)F)c2ccsc12` [Compound H11], the IC50 is 7410 nM in data set [1] (Homo sapiens, 120 h); 2.4 nM on WRN helicase; 1140 nM in data set [2] (Homo sapiens, 120 h).

In the case of `CCc1c(N2CCN(C(=O)c3ncccc3O)CC2)c(=O)n2nc(N3CCOCC3)nc2n1CC(=O)Nc1ccc(C(F)(F)F)c2ccsc12` [Compound H9], the IC50 is above 10000 nM in data set [1] (Homo sapiens, 120 h); 1.7 nM at WRN helicase; 193 nM in data set [2] (Homo sapiens, 120 h). In addition, the CLint scaled at 1 μM in data set [4] amounted to 13 mL/min/kg. Also, the microsomal CLint at 1 μM in data set [4] amounted to 10.3 µL/min/mg.

Turning to `CCc1c(N2CCN(C(=O)c3ncccc3O)CC2)c(=O)n2nc(C3=CCOCC3)nc2n1CC(=O)Nc1ccc(C(F)(F)F)c2ccsc12` [Compound H2], the IC50 in data set [1] (Homo sapiens, 120 h) stood at 3500 nM; against WRN helicase, 1.4 nM; in data set [2] (Homo sapiens, 120 h) it was 131 nM. This compound also had an intrinsic clearance (CLint scaled) at 1 μM in data set [4] of 19.7 mL/min/kg. Besides, the microsomal CLint at 1 μM in data set [4] came out at 15.7 µL/min/mg.

Regarding `CCc1c(N2CCN(C(=O)c3ncnc(C)c3O)CC2)c(=O)n2nc(C3=CCOCC3)nc2n1CC(=O)Nc1ccc(C(F)(F)F)c2ncsc12` [Compound H14], the IC50 is above 10000 nM in data set [1] (Homo sapiens, 120 h); 3.9 nM against WRN helicase; 2200 nM in data set [2] (Homo sapiens, 120 h).

`CCc1c(N2CCN(C(=O)c3ncnc(C)c3O)CC2)c(=O)n2nc(C3=CCOCC3)nc2n1CC(=O)Nc1ccc(C(F)(F)F)c2c1OCC2` [Compound H3]: the figures for the IC50 (in data set [1]; on WRN helicase; in data set [2]) were above 10000 nM, 1.6 nM and 216 nM, respectively. In addition, in data set [4], the “Human Clint μL/min/mg Protein” value is 2.2 μL/min/mg Protein. Moreover, the “Human Clint/(mL/min/kg)” value in data set [4] amounted to 2.7 mL/min/kg.

As usually defined, the IC50 is the concentration needed to halve the response being measured. A higher IC50 goes with lower potency. In general, clearance refers to the volume of plasma or blood freed of the substance per unit of time. Broadly, the half-life is how long it takes for the measured level to halve. Read a low half-life as rapid decline. One may read the Cmax as the maximum level reached in the sampled fluid or tissue. Broadly, the Tmax is the time at which the peak concentration occurs. For orientation: CLint scaled means a measure of how fast metabolising enzymes remove a compound, apart from limits set by blood flow. A low value points to slow turnover.
